The values below come from patent US4855320A, “5-arylalkyl-4-alkoxy-2(5H)-furanones, intermediates and processes for the preparation thereof and medicaments containing them” (Dr. Willmar Schwabe GmbH & Company, priority 1986, dated 1989).

Each structure is given as a SMILES string. Where two headings read alike, the source gives them in different places.

For data set [1], the system named is maximum electroshock spasm (MES) in male mice (NMRI). In words: MES test (maximum electroshock spasm), inhibition of the extensor spasm. It counts as in vivo. To be noted: Mus musculus; for responders at 100 mg/kg / responders at 50 mg/kg: read-out: protective action after 1 hr. (MES test); for ED50: read-out: ED 50 in the MES test; for responders at 50 mg/kg: 50 mg/kg p.o.

The test system of data set [2] is rats. In words: Orientating toxicological investigations on rats. To be noted: up to an oral dosage of 1000 mg./kg. It counts as in vivo.
A short description of data set [3]: Neurotoxicity observation (motility, muscle tonus, respiratory frequency, body temperature, general behaviour). Also noted: species or system mice (NMRI). To be noted: in vivo, po, mouse. On the procedure: During the above-described experiments, the animals were observed during the whole of the experimental period (up to 4 hours) for signs of substance-caused changes of behaviour and neurotoxicity (motility, muscle tonus, respiratory frequency, body temperature and general behaviour).

[4] abbreviates: po, 100 mg/kg p.o., mice, 1 hr., % of animals protected 100% against the extensor spasm.
Where [5] appears, read: oral, mice, 1 hour after administration.
Setting [6] is: read-out: Neurotoxic limiting dose in the mouse.

Turning to `COC1=CC(=O)O[C@H]1[C@H](O)c1ccc(Cl)cc1Cl` (relative stereo) [Example 79, threo-5-(2,4-dichlorophenylhydroxymethyl)-4-methoxy-2(5H)-furanone], the responders at 100 mg/kg in data set [1] (setting [4]) stood at 60%. Besides, in data set [1] (setting [5]), the ED50 came to 82.5 mg/kg. Besides, the mortality of rats result in data set [2] is listed as “no mortality of the animals”.
Turning to `CCCC(C)C1(CC)C(=O)NC(=O)NC1=O` (stereo not shown) [pentobarbital, reference compound], the ED50 in data set [1] (sc, 1 h) was 35.2 mg/kg. Further, the TD50 in data set [3] (setting [6]) is 60 mg/kg.
For the compound `CCC1(c2ccccc2)C(=O)NC(=O)NC1=O` [phenobarbital, reference compound], in data set [1] (po, 1 h), the ED50 is 19.2 mg/kg and the responders at 100 mg/kg is 100%. For the same compound, the TD50 in data set [3] (setting [6]) was determined as 60 mg/kg.
For `NC(=O)N1c2ccccc2C=Cc2ccccc21` [carbamazepine, reference compound], the responders at 50 mg/kg in data set [1] (po, mice, 1 hr.) amounted to 100%. The ED50 in data set [1] (setting [5]) amounted to 14.6 mg/kg. The compound also displayed a TD50 in data set [3] of 100 mg/kg.
As to `CCC1(C)CC(=O)NC1=O` (stereo not shown) [Ethosuximide, reference compound], in data set [1] (setting [4]), the responders at 100 mg/kg came out at 0%. The ED50 in data set [1] (setting [5]) is over 250 mg/kg. Further, in data set [3], the TD50 came to 500 mg/kg.
Consider `CCCC(CCC)C(=O)O` [valproic acid, reference compound], for which the ED50 in data set [1] (ip, 1 h) stood at 205 mg/kg. In data set [1] (po, 1 h), the responders at 100 mg/kg was determined as 0%. Besides, the TD50 in data set [3] (setting [6]) worked out at 350 mg/kg.
On to `COC1=CC(=O)O[C@H]1[C@H](O)c1ccccc1` (relative stereo) [Example 65, threo-4-methoxy-5-phenylhydroxymethyl-2(5H)-furanone], for which the responders at 100 mg/kg in data set [1] (setting [4]) came out at 79%. The ED50 in data set [1] (setting [5]) was found to be 69 mg/kg. Besides, the mortality of rats entry in data set [2] is “no mortality of the animals”.
With `COC1=CC(=O)O[C@H]1[C@H](O)c1ccccc1Cl` (relative stereo) [Example 64, threo-5-(2-chlorophenylhydroxymethyl)-4-methoxy-2(5H)-furanone], the responders at 100 mg/kg in data set [1] (setting [4]) was determined as 100%. For the same compound, the ED50 in data set [1] (setting [5]) was 19.8 mg/kg. In addition, the mortality of rats entry in data set [2] is “no mortality of the animals”.
As to `O=C1NC(=O)C(c2ccccc2)(c2ccccc2)N1` [diphenylhydantoin, reference compound], the ED50 in data set [1] (1 h, (4 h), mice) was determined as 9.1 mg/kg. For the same compound, in data set [1] (po, mice, 1 hr.), the responders at 50 mg/kg came to 100%. In data set [3], this compound displayed a TD50 of 100 mg/kg.
Regarding `COCO[C@H](c1ccc(Cl)cc1Cl)[C@@H]1OC(=O)C=C1OC` (relative stereo) [Example 114, threo-4-methoxy-5-[methoxymethoxy-(2,4-dichlorophenyl)-methyl]-2(5H)-furanone], in data set [1] (setting [4]), the responders at 100 mg/kg was 10%.
As to `COC1=CC(=O)O[C@@]1(C)[C@H](O)c1ccccc1Cl` (relative stereo) [Example 89, threo-5-(2-Chlorophenylhydroxymethyl)-4-methoxy-5-methyl-2(5H)-furanone], the responders at 100 mg/kg in data set [1] (setting [4]) is 100%.
Turning to `COC1=CC(=O)O[C@H]1[C@H](OC)c1cc(Cl)ccc1Cl` (relative stereo) [Example 112, threo-4-methoxy-5-[methoxy-(2,5-dichlorophenyl)-methyl]-2(5H)-furanone], the responders at 100 mg/kg in data set [1] (setting [4]) was found to be 100%.
Turning to `COC1=CC(=O)O[C@H]1[C@H](O)c1c(Cl)cccc1Cl` (relative stereo) [Example 103, threo-5-(2,6-dichlorophenylhydroxymethiyl)-4-methoxy-2(5H)-furanone], the responders at 100 mg/kg in data set [1] (setting [4]) is 100%. The ED50 in data set [1] (setting [5]) was 37 mg/kg.
On to `COC1=CC(=O)O[C@H]1[C@H](O)c1cc(Cl)ccc1Cl` (relative stereo) [Example 81, threo-5-(2,5-dichlorophenylhydroxymethyl)-4-methoxy-2(5H)-furanone], for which, in data set [1] (setting [4]), the responders at 100 mg/kg turned out to be 100%. In data set [1] (setting [5]), the ED50 was 19.5 mg/kg. Besides, in data set [2], the mortality of rats result is on record as “no mortality of the animals”.
